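Five compound concentrations were applied to cells in 96-well plates for 48 hours; endpoints were derived by simple linear interpolation of the resulting dose-response curve. GI50 is the concentration that inhibits growth by half. Definition used: TGI = concentration required for complete inhibition of growth.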
Tests used:
Test in all cases: NCI anticancer screen, dose series, 48 h
CAKI-1 renal = tested on: CAKI-1 renal
HCT-116 colon = tested on: HCT-116 colon
HOP-62 NSCLC = tested on: HOP-62 NSCLC
HS 578T breast = tested on: HS 578T breast
MOLT-4 leukemia = tested on: MOLT-4 leukemia
NCI-H522 lung = tested on: NCI-H522 lung
SF-295 CNS = tested on: SF-295 CNS
HOP-92 NSCLC = tested on: HOP-92 NSCLC

SMILES | GI50 (CAKI-1 renal) [µM] | TGI (CAKI-1 renal) [µM] | GI50 (HCT-116 colon) [µM] | TGI (HCT-116 colon) [µM] | GI50 (HOP-62 NSCLC) [µM] | TGI (HOP-62 NSCLC) [µM] | GI50 (HS 578T breast) [µM] | TGI (HS 578T breast) [µM] | TGI (MOLT-4 leukemia) [µM] | GI50 (NCI-H522 lung) [µM] | TGI (NCI-H522 lung) [µM] | GI50 (SF-295 CNS) [µM] | TGI (SF-295 CNS) [µM] | TGI (HOP-92 NSCLC) [µM] | GI50 (HOP-92 NSCLC) [µM] | GI50 (MOLT-4 leukemia) [µM]
Cc1ccc(Cl)cc1Nc1nc(C(F)(F)F)ccc1C(=O)N1CCN(c2cccc(Cl)c2)CC1 | 26.4 | > 100 | 37.9 | > 100 | > 100 | > 100 | 47.9 | > 100 | > 100 | 89.7 | > 100 | > 100 | > 100 |  |  | 
COc1ccc(C(O)c2nccn2C)c(OC)c1 (configuration not stated) |  | > 100 |  | > 100 |  | > 100 |  |  | > 100 |  | > 100 |  | > 100 | > 100 |  | 
O=c1c2ccccc2sc2cccc(NCCCN3CCN(CCCNc4cccc5sc6ccccc6c(=O)c45)CC3)c12 |  | > 100 |  | > 100 |  | > 100 |  | > 100 | > 100 |  | > 100 |  | > 100 |  |  | 
CC(=O)OC12c3ccccc3-c3ccccc3C1C1C(=O)N(C)C(=O)C12Cl (configuration not stated) |  | > 10 |  |  |  | > 10 |  | > 10 | > 10 |  | > 10 |  | > 10 | > 10 |  | 
C1CSCCSCCS1 |  |  |  | > 100 |  | > 100 |  |  | > 100 |  | > 100 |  | > 100 | > 100 |  | 
O=C1NC(=S)NNC12c1ccccc1-c1ccccc12 |  | > 10 |  |  |  | > 10 |  | > 10 | > 10 |  |  |  |  | > 10 |  | 
O=c1cc2oc3cc(O)c(O)cc3c(-c3ccccc3O)c-2cc1O | 3.04 | 11.1 | 3.81 | 21.9 | 5.62 | > 100 |  |  | > 100 |  |  | 19.6 | 61.3 | > 100 | 30.3 | 14.9
Cc1cn2c(/C=C3\C(=O)Nc4ccc(O)cc43)c(-c3ccc(Cl)cc3)nc2s1 | 33.4 | 72.8 | 15.6 | 42.5 | 15.3 | 30.3 | 21.1 | 84.1 | 27.1 | 11.3 | 57.9 | 15.2 | 41.4 |  |  | 9.97
CCN1CCN=c2c3cc(OC)ccc3n3cnc4ccc1c2c43 |  |  |  | 0.194 |  | 0.924 |  | 0.866 | 1.57 |  | 0.207 |  | 1.29 | 6.32 |  | 
Nc1nc(N)c(N=Nc2ccc([As](=O)(O)O)cc2)c(=O)[nH]1 |  | > 100 |  | > 100 |  | > 100 |  | > 100 | > 100 |  | > 100 |  | > 100 |  |  | 
C=CCc1cccc(/C=N/NC(=O)CN2CCN(Cc3ccccc3)CC2)c1O | 0.841 | 2.12 | 1.71 | 13.8 | 2.25 | 13.8 | 5.63 | 23.1 | 5.64 |  |  | 0.649 | 4.04 | 6.22 | 1.28 | 1.12
N#Cc1c(-c2ccc(F)cc2)c(-c2ccc(F)cc2)nn(CCO)c1=O |  | > 100 |  | 7.04 |  | > 76.1 |  | 12.1 | > 100 |  |  |  | 37.2 | > 100 |  | 
O=c1cc(-c2ccccc2)[nH]c2c(S)cccc12 |  |  |  | > 100 |  | > 100 |  | > 100 | > 100 |  | > 100 |  | > 100 | > 100 |  | 
CC(C)=CCc1cc(O)cc2c1OC(C=C(C)C)C1=C2C(=O)C2=C(NCCS2(=O)=O)C1=O (configuration not stated) |  |  | 0.611 | 2.45 | 3.01 | 5.94 | 3.48 | 11.9 | 7.19 | 2.64 | 7.41 |  |  | 15.9 | 5.73 | 2.23
CC1(C)OCCn2c1nc1c(N3CCOCC3)nc(-c3cnc(N)nc3)nc12 |  |  | 0.337 | > 100 | 0.477 | 6.56 | 0.135 | 0.981 | > 100 | 0.415 | 40.8 | 0.213 | 1.92 | 1.84 | 0.141 | 0.33
CCOc1ccc2nc(S/C(=C/C=C(C#N)C#N)c3ccc(C)cc3)sc2c1 | 17.1 | 54.6 | 17.3 | 31.6 | 44.9 | > 100 | 32.2 | 88.4 | 8.5 | 20.8 | 49.3 | 22.8 | 60.8 |  |  | 3.03
CCCCCCNC(=O)c1nc(-c2ccccc2)oc1Cc1ccc(OP(=O)(O)O)cc1 | 15.8 | 33.6 | 17.1 | 32.6 | 17.4 | 32.3 | 18.7 | 54.8 | 54.8 | 16.1 | 34.5 |  |  | 27.9 | 14.2 | 20.9

Source: PubChem BioAssay (NCI)
